Data from ChEMBL document CHEMBL5346947, “Targeting the Estrogen Receptor for the Treatment of Breast Cancer: Recent Advances and Challenges” (J Med Chem, 2023).

Assays:
MCF7 [1] = assay: animal or person; conditions: Mus musculus, MCF7, po, 672 h, read-out: TGI
Description: Antitumor activity in human MCF7 cells xenografted in 17beta-estradiol-treated NOD/SCID mouse model assessed as tumor growth inhibition at 30 mg/kg, po QD for 28 days relative to control

[2] = Antitumor activity in tamoxifen-resistant human MCF7 cells xenografted in 17beta-estradiol-treated NOD/SCID mouse model assessed as tumor growth inhibition at 30 mg/kg, po QD for 28 days in the presence of palbociclib at 60 mg/kg relative to control; format: functional; conditions: tamoxifen-resistant MCF7 cell, 672 h, time 28 day, read-out: TGI
[3] = AUC (0-24hrs) in human MCF7 cells xenografted in 17beta-estradiol-treated NOD/SCID mouse model at 3 mg/kg, po and measured after 18 hrs post last dose; conditions: in vivo
MCF7 [4] = assay: animal or person; conditions: Mus musculus, MCF7, 18 h, read-out: TGI
Description: Antitumor activity in human MCF7 cells xenografted in 17beta-estradiol-treated NOD/SCID mouse model assessed as tumor growth inhibition at 30 mg/kg, sc and measured after 18 hrs post last dose

[5] = Cmax in human MCF7 cells xenografted in 17beta-estradiol-treated NOD/SCID mouse model at 30 mg/kg, po and measured after 18 hrs post last dose; conditions: in vivo
[6] = Cmax in human MCF7 cells xenografted in 17beta-estradiol-treated NOD/SCID mouse model at 10 mg/kg, po and measured after 18 hrs post last dose; conditions: in vivo
[7] = AUC (0-24hrs) in human MCF7 cells xenografted in 17beta-estradiol-treated NOD/SCID mouse model at 30 mg/kg, po and measured after 18 hrs post last dose; conditions: in vivo
[8] = Cmax in human MCF7 cells xenografted in 17beta-estradiol-treated NOD/SCID mouse model at 3 mg/kg, po and measured after 18 hrs post last dose; conditions: in vivo
MCF7 [9] = assay: animal or person; conditions: Mus musculus, MCF7, po, 672 h, read-out: TGI; remark: listed apart in the source
Description: Antitumor activity in human MCF7 cells xenografted in 17beta-estradiol-treated NOD/SCID mouse model assessed as tumor growth inhibition at 30 mg/kg, po QD for 28 days in the presence of palbociclib at 60 mg/kg relative to control

[10] = target: T1, Protein cereblon/Estrogen receptor (Homo sapiens) (UniProt P03372+Q96SW2); assay: Protac activity at E3 ubiquitin-protein ligase/ERalpha in human MCF7 cells xenografted in 17beta-estradiol-treated NOD/SCID mouse model assessed as reduction in ERalpha degradation at 10 mg/kg, po and measured after 18 hrs post last dose relative to control; set-up: scale not given: the % may be the effect or the level left
T1 sequence (Q96SW2 whole entry, looked up, one chain of several): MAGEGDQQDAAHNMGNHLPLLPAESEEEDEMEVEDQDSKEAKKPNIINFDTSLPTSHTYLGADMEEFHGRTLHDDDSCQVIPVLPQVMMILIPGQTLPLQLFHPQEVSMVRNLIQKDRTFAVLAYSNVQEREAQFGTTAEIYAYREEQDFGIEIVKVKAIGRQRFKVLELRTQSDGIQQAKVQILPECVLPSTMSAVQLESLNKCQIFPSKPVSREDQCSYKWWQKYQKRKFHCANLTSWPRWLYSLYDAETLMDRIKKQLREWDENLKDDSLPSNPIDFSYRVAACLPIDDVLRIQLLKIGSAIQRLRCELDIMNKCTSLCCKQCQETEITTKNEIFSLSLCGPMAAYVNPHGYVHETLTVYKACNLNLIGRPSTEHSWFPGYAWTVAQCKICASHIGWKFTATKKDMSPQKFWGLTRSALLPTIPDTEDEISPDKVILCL

[11] = target: T1, Protein cereblon/Estrogen receptor (Homo sapiens); assay: Protac activity at E3 ubiquitin-protein ligase/ERalpha in human MCF7 cells xenografted in 17beta-estradiol-treated NOD/SCID mouse model assessed as reduction in ERalpha degradation at 30 mg/kg, po and measured after 18 hrs post last dose relative to control; set-up: scale not given: the % may be the effect or the level left
MCF7 [12] = assay: animal or person; conditions: Mus musculus, MCF7, 18 h, read-out: TGI; remark: listed apart in the source
Description: Antitumor activity in human MCF7 cells xenografted in 17beta-estradiol-treated NOD/SCID mouse model assessed as tumor growth inhibition at 10 mg/kg, sc and measured after 18 hrs post last dose

[13] = Antitumor activity in tamoxifen-resistant human MCF7 cells xenografted in 17beta-estradiol-treated NOD/SCID mouse model assessed as tumor growth inhibition at 30 mg/kg, po QD for 28 days relative to control; format: functional; conditions: tamoxifen-resistant MCF7 cell, 672 h, time 28 day, read-out: TGI
MCF7 [14] = assay: animal or person; conditions: Mus musculus, MCF7, 336 h, read-out: TGI
Description: Antitumor activity in human MCF7 cells xenografted in 17beta-estradiol-treated NOD/SCID mouse model assessed as tumor growth inhibition at 200 mg/kg, sc BIW for 2 weeks in the presence of palbociclib at 60 mg/kg relative to control

[15] = target: T1, Protein cereblon/Estrogen receptor (Homo sapiens); assay: Protac activity at E3 ubiquitin-protein ligase/ERalpha in human MCF7 cells xenografted in 17beta-estradiol-treated NOD/SCID mouse model assessed as reduction in ERalpha degradation at 3 mg/kg and measured after 18 hrs post last dose relative to control; format: organism-based; set-up: scale not given: the % may be the effect or the level left
[16] = AUC (0-24hrs) in human MCF7 cells xenografted in 17beta-estradiol-treated NOD/SCID mouse model at 10 mg/kg, po and measured after 18 hrs post last dose; conditions: in vivo
MCF7 [17] = assay: cells; conditions: Homo sapiens
Description: Anti-proliferative activity against wild type human MCF7 cells assessed as reduction in cell growth by CellTiter-Glo assay

MCF7 [18] = assay: cells; conditions: Homo sapiens; remark: listed apart in the source
MCF7 [19] = assay: cells; conditions: Homo sapiens; remark: listed apart in the source
Estrogen receptor beta = Estrogen receptor beta (Homo sapiens, UniProt Q92731); assay: Inhibition of ERbeta (261 to 500 residues) in doxycycline-induced human HEK293 cells incubated overnight by luciferase based assay; format: cell-based
Estrogen receptor beta, sequence (Q92731 whole entry, the tested form may be a part): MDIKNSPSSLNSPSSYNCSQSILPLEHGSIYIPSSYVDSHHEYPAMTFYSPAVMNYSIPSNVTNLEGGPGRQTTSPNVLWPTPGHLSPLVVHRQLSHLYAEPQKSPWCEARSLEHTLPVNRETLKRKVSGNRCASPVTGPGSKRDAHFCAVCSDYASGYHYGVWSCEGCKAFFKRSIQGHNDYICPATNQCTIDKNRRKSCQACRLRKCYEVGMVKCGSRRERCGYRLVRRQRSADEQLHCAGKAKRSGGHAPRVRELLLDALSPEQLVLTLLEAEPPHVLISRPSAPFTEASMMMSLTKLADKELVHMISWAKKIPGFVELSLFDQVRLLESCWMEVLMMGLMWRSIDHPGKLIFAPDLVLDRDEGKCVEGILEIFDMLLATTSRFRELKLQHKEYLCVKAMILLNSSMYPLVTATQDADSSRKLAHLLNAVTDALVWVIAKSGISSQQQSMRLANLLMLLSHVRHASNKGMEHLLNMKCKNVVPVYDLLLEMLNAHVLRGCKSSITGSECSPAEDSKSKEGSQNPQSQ

Estrogen receptor = target: T2, Estrogen receptor (Homo sapiens, UniProt P03372); assay: Induction of ERalpha degradation (unknown origin)
T2 sequence (P03372 whole entry): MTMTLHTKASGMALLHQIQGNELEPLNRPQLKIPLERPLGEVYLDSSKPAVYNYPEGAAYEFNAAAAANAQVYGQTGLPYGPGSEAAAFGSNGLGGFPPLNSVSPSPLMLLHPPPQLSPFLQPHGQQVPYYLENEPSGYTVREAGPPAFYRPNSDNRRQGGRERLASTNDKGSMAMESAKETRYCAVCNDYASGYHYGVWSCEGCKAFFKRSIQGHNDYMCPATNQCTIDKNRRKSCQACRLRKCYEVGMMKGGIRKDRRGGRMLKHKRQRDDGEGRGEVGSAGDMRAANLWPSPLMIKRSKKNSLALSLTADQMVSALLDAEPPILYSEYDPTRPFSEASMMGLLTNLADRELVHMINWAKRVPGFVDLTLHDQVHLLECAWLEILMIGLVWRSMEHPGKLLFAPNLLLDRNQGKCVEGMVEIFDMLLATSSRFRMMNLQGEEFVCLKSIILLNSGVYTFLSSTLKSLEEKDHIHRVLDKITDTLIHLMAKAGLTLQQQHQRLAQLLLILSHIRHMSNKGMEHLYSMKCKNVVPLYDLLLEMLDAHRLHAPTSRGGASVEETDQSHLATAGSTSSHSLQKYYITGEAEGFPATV

[20] = target: T3, Progesterone receptor (Homo sapiens) (UniProt P06401); assay: Inhibition of PGR transcription in human MCF7 harboring ERalpha […] mutant measured upto 96 hrs by qPCR analysis relative to control; format: cell-based
T3 sequence (whole entry): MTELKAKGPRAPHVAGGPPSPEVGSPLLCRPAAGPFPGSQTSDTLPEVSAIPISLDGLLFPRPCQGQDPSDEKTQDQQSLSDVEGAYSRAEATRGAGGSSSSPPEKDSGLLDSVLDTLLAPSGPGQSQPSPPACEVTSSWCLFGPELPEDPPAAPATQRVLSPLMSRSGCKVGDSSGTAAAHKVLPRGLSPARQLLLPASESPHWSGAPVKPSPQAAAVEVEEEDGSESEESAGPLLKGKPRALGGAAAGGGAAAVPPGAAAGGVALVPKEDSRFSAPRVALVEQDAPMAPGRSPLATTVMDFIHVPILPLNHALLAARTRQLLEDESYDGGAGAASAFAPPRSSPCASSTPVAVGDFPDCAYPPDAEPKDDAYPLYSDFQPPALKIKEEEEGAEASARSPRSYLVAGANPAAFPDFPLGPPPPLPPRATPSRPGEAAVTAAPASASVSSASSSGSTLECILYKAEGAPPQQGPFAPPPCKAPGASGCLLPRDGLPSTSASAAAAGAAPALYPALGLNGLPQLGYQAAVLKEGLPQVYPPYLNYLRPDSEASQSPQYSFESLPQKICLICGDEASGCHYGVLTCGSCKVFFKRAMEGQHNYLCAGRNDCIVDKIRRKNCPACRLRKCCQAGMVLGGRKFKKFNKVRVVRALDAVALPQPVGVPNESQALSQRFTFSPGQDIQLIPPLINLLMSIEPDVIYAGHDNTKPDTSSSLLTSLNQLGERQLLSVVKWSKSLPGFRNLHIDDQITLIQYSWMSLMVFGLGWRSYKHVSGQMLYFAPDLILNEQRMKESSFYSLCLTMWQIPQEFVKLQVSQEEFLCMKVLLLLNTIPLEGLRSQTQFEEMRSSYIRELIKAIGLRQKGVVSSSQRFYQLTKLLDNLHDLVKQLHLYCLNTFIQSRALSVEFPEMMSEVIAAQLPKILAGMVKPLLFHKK

MCF7 [21] = assay: Antiproliferative activity against human MCF7 cells harboring ERalpha Y537N mutant assessed as inhibition of cell growth incubated for 6 to 7 days by high content imaging assay; format: functional, cell-based
[22] = target: T3, Progesterone receptor (Homo sapiens); assay: Inhibition of PGR transcription in human MCF7 harboring wild type ERalpha measured upto 96 hrs by qPCR analysis relative to control; format: cell-based
MCF7 [23] = assay: Antiproliferative activity against human MCF7 cells harboring wild type ERalpha assessed as inhibition of cell growth incubated for 6 to 7 days by high content imaging assay; format: functional, cell-based
MCF7 [24] = assay: Antitumor activity against human MCF7 cells xenograft model assessed as tumor growth inhibition at 120 mg/kg relative to control; format: functional; conditions: read-out: TGI
MCF7 [25] = assay: Antitumor activity against human MCF7 cells xenograft model assessed as tumor growth inhibition at 60 mg/kg relative to control; format: functional; conditions: read-out: TGI
MCF7 [26] = assay: Antitumor activity against human MCF7 cells xenograft model assessed as tumor growth inhibition at 90 mg/kg relative to control; format: functional; conditions: read-out: TGI
MCF7 [27] = assay: Antitumor activity against human MCF7 cells xenograft model assessed as tumor growth inhibition at 30 mg/kg relative to control; format: functional; conditions: read-out: TGI

`O=C1CC[C@H](N2Cc3cc(N4CCN(CC5CCN(c6ccc([C@@H]7c8ccc(O)cc8CC[C@@H]7c7ccccc7)cc6)CC5)CC4)ccc3C2=O)C(=O)N1` [VEPDEGESTRANT] showed an inhibition in vivo at 30 mg/kg (MCF7 [1]) of 105%, an inhibition in vivo at 30 mg/kg [2] of 113% and an AUC(0-t) at 18 h [3] of 658 ng·h/mL. For the same molecule, the inhibition in vivo at 30 mg/kg (MCF7 [4]) was 124%, the Cmax [5] was 962 ng/mL and the Cmax [6] was 312 ng/mL. The AUC(0-t) at 18 h [7] was 5720 ng·h/mL, the Cmax [8] was 84 ng/mL and the inhibition in vivo at 30 mg/kg (MCF7 [9]) was 131%. The Activity [10] was 97%, the Activity [11] was 94% and the inhibition in vivo at 10 mg/kg (MCF7 [12]) was 98%. The inhibition in vivo at 30 mg/kg [13] was 65%, the inhibition in vivo at 200 mg/kg (MCF7 [14]) was 108% and the Activity [15] was 95%. The AUC(0-t) at 18 h [16] was 2540 ng·h/mL.

Work on `O=C(O)c1ccc2c(c1)CCCC(c1ccc(Cl)cc1Cl)=C2c1ccc(O[C@H]2CCN(CCCF)C2)cc1` [AMCENESTRANT] yielded an EC50 (MCF7 [17]) of 20 nM, an EC50 (MCF7 [18]) of 331 nM and an EC50 (MCF7 [19]) of 595 nM. The IC50 (Estrogen receptor beta) was 8.4 nM.

`O=C(O)/C=C/c1ccc(Oc2c(-c3ccc(O)cc3)sc3cc(O)ccc23)cc1` showed an EC50 (Estrogen receptor) of 31 nM.

With `Oc1ccc2c3c(cnc2c1)-c1ccc(C(F)(F)F)cc1O[C@@H]3c1ccc(OCCN2CC(CF)C2)cc1` [IMLUNESTRANT] the inhibition [20] was > 75%, the IC50 (MCF7 [21]) was 17 nM and the inhibition [22] was > 75%. It also gave an IC50 (MCF7 [23]) of 3 nM.

In the case of `CCNCCc1ccc(CN(CC)c2cc(OC)ccc2[C@@H]2CCc3cc(O)ccc3C2)cc1` [ELACESTRANT], the inhibition in vivo at 120 mg/kg (MCF7 [24]) is reported as 96%, the inhibition in vivo at 60 mg/kg (MCF7 [25]) is reported as 88% and the inhibition in vivo at 90 mg/kg (MCF7 [26]) is reported as 97%. For the same molecule, the inhibition in vivo at 30 mg/kg (MCF7 [27]) was 66%.
